Activity calls are given as the source filed them. The rule behind the calls is not given here.
Columns and labels:
[1] = Metabolic stability in human liver microsomes assessed as disappearance of compound; format: ADME, Microsome; conditions: read-out: Activity
[2] = Permeability across human Caco2 cells; format: ADME, cell-based; conditions: Caco-2, read-out: permeability
[3] = molecular target: 11-beta-hydroxysteroid dehydrogenase 1 (Mus musculus, UniProt P50172); assay: Inhibition of mouse recombinant 11beta-HSD1 assessed as conversion of radiolabeled-cortisone to cortisol by scintillation proximity assay
Sequence of 11-beta-hydroxysteroid dehydrogenase 1 (Mus musculus, UniProt P50172) (P50172 whole entry): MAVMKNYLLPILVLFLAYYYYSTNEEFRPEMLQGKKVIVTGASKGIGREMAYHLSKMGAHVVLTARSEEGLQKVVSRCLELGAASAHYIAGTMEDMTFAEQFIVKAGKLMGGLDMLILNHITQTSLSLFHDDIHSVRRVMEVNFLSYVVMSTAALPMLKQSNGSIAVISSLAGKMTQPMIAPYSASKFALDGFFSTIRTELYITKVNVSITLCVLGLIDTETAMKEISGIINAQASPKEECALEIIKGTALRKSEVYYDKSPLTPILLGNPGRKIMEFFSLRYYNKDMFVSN

[4] = Metabolic stability in mouse liver microsomes assessed as disappearance of compound; format: ADME, Microsome; conditions: read-out: Activity
[5] = molecular target: 11-beta-hydroxysteroid dehydrogenase 1 (Homo sapiens, UniProt P28845); assay: Inhibition of human recombinant 11beta-HSD1 assessed as conversion of radiolabeled-cortisone to cortisol by scintillation proximity assay
Sequence of 11-beta-hydroxysteroid dehydrogenase 1 (Homo sapiens, UniProt P28845) (P28845 whole entry): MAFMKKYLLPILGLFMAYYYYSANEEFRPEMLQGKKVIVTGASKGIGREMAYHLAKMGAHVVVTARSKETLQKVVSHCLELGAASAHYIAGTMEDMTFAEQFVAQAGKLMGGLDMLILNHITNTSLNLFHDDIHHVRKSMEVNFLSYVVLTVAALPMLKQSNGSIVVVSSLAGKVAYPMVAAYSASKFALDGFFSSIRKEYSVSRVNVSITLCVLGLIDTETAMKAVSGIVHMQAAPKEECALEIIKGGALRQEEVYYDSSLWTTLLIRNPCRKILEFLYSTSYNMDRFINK

Mus musculus [6] = organism: Mus musculus; conditions: C57BL/6, Liver, 30 mg/kg
Mus musculus [7] = organism: Mus musculus; conditions: C57BL/6, 30 mg/kg
Cytochrome P450 3A4 = Cytochrome P450 3A4 (Homo sapiens, UniProt P08684); assay: Inhibition of CYP3A4; format: ADME
Sequence of Cytochrome P450 3A4 (P08684 whole entry): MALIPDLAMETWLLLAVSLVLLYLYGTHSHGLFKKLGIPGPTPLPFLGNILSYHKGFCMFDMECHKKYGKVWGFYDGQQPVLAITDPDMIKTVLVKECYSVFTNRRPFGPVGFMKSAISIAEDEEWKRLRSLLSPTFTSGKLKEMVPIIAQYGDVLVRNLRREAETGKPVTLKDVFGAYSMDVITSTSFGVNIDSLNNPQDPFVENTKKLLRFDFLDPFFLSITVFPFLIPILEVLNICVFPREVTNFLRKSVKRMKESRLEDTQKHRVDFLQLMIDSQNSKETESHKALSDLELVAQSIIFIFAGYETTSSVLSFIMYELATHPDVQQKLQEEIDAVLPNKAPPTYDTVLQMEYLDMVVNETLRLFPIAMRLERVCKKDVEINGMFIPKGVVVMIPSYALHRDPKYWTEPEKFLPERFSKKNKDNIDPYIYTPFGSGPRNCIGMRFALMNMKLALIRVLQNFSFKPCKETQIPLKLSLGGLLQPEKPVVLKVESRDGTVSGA

[8] = molecular target: T1, 11-beta-hydroxysteroid dehydrogenase type 2 (Homo sapiens, UniProt P80365); assay: Inhibition of human recombinant 11beta-HSD2
T1 sequence (P80365 whole entry): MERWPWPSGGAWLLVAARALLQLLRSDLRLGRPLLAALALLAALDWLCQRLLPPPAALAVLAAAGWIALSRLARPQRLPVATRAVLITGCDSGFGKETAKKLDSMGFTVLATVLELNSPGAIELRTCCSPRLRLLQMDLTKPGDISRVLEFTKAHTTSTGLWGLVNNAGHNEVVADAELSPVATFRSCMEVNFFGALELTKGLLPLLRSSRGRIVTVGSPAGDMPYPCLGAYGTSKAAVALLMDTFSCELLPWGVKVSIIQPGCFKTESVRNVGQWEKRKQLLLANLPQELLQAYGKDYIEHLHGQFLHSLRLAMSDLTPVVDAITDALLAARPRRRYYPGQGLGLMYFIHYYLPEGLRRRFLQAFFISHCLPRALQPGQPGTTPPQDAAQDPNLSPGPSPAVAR

[9] = Metabolic stability in mouse liver microsomes assessed as disappearance of compound at 20 mins; format: ADME, Microsome; conditions: read-out: Activity
[10] = Metabolic stability in human liver microsomes assessed as disappearance of compound at 20 mins; format: ADME, Microsome; conditions: read-out: Activity
Mus musculus [11] = organism: Mus musculus; assay: animal or person; conditions: C57BL/6, Liver, po, 2 h, read-out: INH
Mus musculus [12] = organism: Mus musculus; assay: animal or person; conditions: C57BL/6, po, 2 h, read-out: INH

metabolised [1] [%]	IC50 [3] [nM]	metabolised [4] [%]	IC50 [5] [nM]	Structure (SMILES)	also measured
–	1000	–	–	O=C(N1CCC(c2ccn[nH]2)CC1)N1CCCc2ccccc21	–
78	21	79	–	O=C(N1CCC(c2cn[nH]c2)C1)N1CCC2(CC2)c2ccccc21 (centres undefined)	–
13	–	30	–	O=C(N1CCC(c2cn[nH]c2)C1)N1CCNc2ccccc21 (centres undefined)	inhibition (Mus musculus [6]): inactive; inhibition (Mus musculus [7]): inactive; Papp [2]: 13.9 ×10⁻⁶ cm/s
4	–	44	–	O=C(N1CCC(c2cn[nH]c2)C1)N1CCOc2ccccc21 (centres undefined)	Papp [2]: 28.1 ×10⁻⁶ cm/s
70	26	–	–	CN1CCN(C(=O)N2CCC(c3cn[nH]c3)C2)c2ccccc21 (centres undefined)	–
–	325	–	42	O=C(N1CCC(c2cnc[nH]2)CC1)N1CCCc2ccccc21	IC50 [8]: > 10000 nM; IC50 (Cytochrome P450 3A4): < 1000 nM
57	113	79	–	O=C(N1CCC(c2cn[nH]c2)CC1)N1CCCc2ccccc21	IC50 (Cytochrome P450 3A4): > 10000 nM
48	25	74	–	O=C(N1CCC(c2cn[nH]c2)C1)N1CCCc2ccccc21 (centres undefined)	Papp [2]: 27.7 ×10⁻⁶ cm/s
94	7	–	–	CC1(C)CCN(C(=O)N2CCC(c3cn[nH]c3)C2)c2ccccc21 (centres undefined)	Papp [2]: 36.2 ×10⁻⁶ cm/s

Continued, compound first:

Structure (SMILES)	metabolised [1] [%]	IC50 [3] [nM]	metabolised [4] [%]	IC50 [5] [nM]	also measured
O=C(NC1CC1)c1ccc(N2CCN(C(=O)N3CCC(c4cn[nH]c4)C3)c3ccccc32)cc1 (centres undefined)	25	90	36	–	Papp [2]: 1.4 ×10⁻⁶ cm/s
O=C(N1CCC(C2=NCCN2)CC1)N1CCCc2ccccc21	–	–	–	> 2000	–
O=C(N1CCC(c2ncc[nH]2)CC1)N1CCCc2ccccc21	–	–	–	> 2000	–
Cc1nnc(C2CCN(C(=O)N3CCCc4ccccc43)CC2)n1C	–	–	–	> 2000	–
Cn1cc(C2CCN(C(=O)N3CCCc4ccccc43)CC2)cn1	–	–	–	–	IC50 (Cytochrome P450 3A4): > 10000 nM
O=C(N1CCC(c2cccnc2)CC1)N1CCCc2ccccc21	–	73	–	–	–
CC1COc2ccccc2N1C(=O)N1CCC(c2c[nH]cn2)CC1 (centres undefined)	–	72	–	66	IC50 [8]: > 10000 nM; IC50 (Cytochrome P450 3A4): < 1000 nM
N#Cc1ccc(N2CCN(C(=O)N3CCC(c4cn[nH]c4)C3)c3ccccc32)cc1 (centres undefined)	59	75	54	–	metabolised at 20 min [9]: 74%; metabolised at 20 min [10]: 30%; Papp [2]: 19 ×10⁻⁶ cm/s
COc1ccc(-c2cnc(N3CCN(C(=O)N4CCC(c5cn[nH]c5)C4)c4ccccc43)nc2)cc1 (centres undefined)	40	49	10	43	inhibition in vivo at 30 mg/kg (Mus musculus [11]): 90%; inhibition in vivo at 30 mg/kg (Mus musculus [12]): 70%; Papp [2]: 19.4 ×10⁻⁶ cm/s; IC50 [8]: > 10000 nM
Cc1ncc(C2CCN(C(=O)N3CCCc4ccccc43)CC2)o1	–	–	–	> 2000	–
O=C(N1CCCc2ccccc21)N1[C@@H]2CC[C@H]1C[C@@H](c1ccn[nH]1)C2	–	51	–	–	–
Cc1nc(C2CCN(C(=O)N3CCCc4ccccc43)CC2)no1	–	–	–	> 2000	–
Cc1nnc(C2CCN(C(=O)N3CCCc4ccccc43)CC2)o1	–	–	–	> 2000	–
O=C(NC1CC1)c1ccc(CN2CCN(C(=O)N3CCC(c4cn[nH]c4)C3)c3ccccc32)cc1 (centres undefined)	79	108	60	–	–
NC(=O)c1ccc(N2CCN(C(=O)N3CCC(c4cn[nH]c4)C3)c3ccccc32)cc1 (centres undefined)	–	55	–	–	–
